{
  "source": "patent EP0031926A2",
  "about": "“Radioimmunological set for the determination of progesterone and its use, and radioimmunoassay method for the determination of progesterone” (HOECHST AKTIENGESELLSCHAFT, priority 1979, dated 1981)",
  "data": [
    {"system": "gegen Progesteron-11α-bernsteinsäurehalbester-ovalbumin erzeugten Antiserum", "assay": "Cross-reactivity of steroids in the radioimmunoassay for progesterone (competitive binding, 125I-labelled progesterone-3 tracer, charcoal separation)", "design": "species or system Kaninchen", "details": "relative to Progesteron = 100; acid buffer; heterologous system (11α-protein conjugate antiserum, 3-iodinated tracer)", "from_the_text": "Die vorliegende Erfindung stellt ein Radioimmunobesteck und eine Bestimmungsmethode für Progesteron zur Verfügung, welche dadurch gekennzeichnet ist, daß man in saurem Medium, vorzugsweise einem sauren Puffer, eine Flüssigkeitsprobe mit einer bekannten Menge von gegen ein Progesteron/Proteinkonjugat erzeugten Antikörpern, wobei das Protein über eine Brückengruppe in 11-Stellung, im allgemeinen 11α-Stellung, an das Progesteron gebunden ist, und mit einer bekannten Menge eines Progesteronderivats,das in 3-Stellung über eine Brücke mit einem Rest substituiert ist, welcher ein oder mehrere Atome eines Jodradioisotops trägt, inkubiert, . das in dem entstandenen Antikörper /Antigenkomplex gebundene Steroid von der freien Steroidkomnonente abtrennt und deren Radioaktivität oder die des Antikörper/Antigenkomplexes mißt. Im allgemeinen wird das Antiserum zuletzt zugesetzt, und der Indikator wird vorzugsweise zum Standard bzw. zur Probe gegeben.\nWie oben erwähnt ist die eigentliche Bestimmung eine herkömmliche radioimmunologische Bestimmung mit Bindungskonkurrenz, d.h. sie ist abhängig von der Konkurrenz zwischen unmarkiertem Progesteron und einem radiojodierten Progesteronderivat um die Bindungsstellen eines progesteronspezifischen Antikörpers. Der an den Antikörper gebundene Anteil an jodiertem Progesteron ist der Menge des vorhandenen unmarkierten Progesterons umgekehrt proportional. Dieser Anteil wird dadurch gemessen, daß man die gebundenen und freien Komponenten trennt, im allgemeinen durch Adsorption der letzteren, und die Radioaktivität der einen oder der anderen mißt.\nDie bevorzugte Reagenzienkombination für die erfindungsgemäße Bestimmungsmethode besteht aus einem gegen Progesteron-11α-bernsteinsäurehalbester-ovalbumin erzeugten Antiserum und Progesteron-3-(0-carboxymethyl)-oxim-[^125J]-jodhistamin. J]-jodhistamin.\nDie Bestimmung wird auf herkömmliche Weise durchgeführt, beispielsweise erstellt man einen Satz Röhrchen, die jeweils ein Aliquot an 3-jodiertem Indikator und entweder eine bekannte Menge einer Standardprogestercnlösung in einem geeigneten, von Steroid befreiten Verdünnungsmittel oder eine unbekannte Probe enthalten. Vorzugsweise gibt man den Indikator zum Standard oder zur Probe. Ein Aliquot des Antiserums wird in jedes Röhrchen gegeben, dessen Inhalt gut vermischt und stehengelassen wird, vorzugsweise bei 0 - 4°C. Die Bestimmung läßt sich jedoch auch bei höheren Temperaturen, z.B. Raumtemperatur oder 37°C, durchführen. Nach Ablauf einer gewissen Zeit, vorzugsweise 21/2 - 5 Stunden, wird jedem Röhrchen ein Aliquot eines Trennmittels zugesetzt. Das Trennmittel ist beispielsweise ein zweiter Antikörper oder (NH4)2S04, jedoch vorzugsweise Aktivkohle. Man läßt dem Trennmittel genügend Zeit, um das freie Steroid zu binden, trennt es vom Rest des Röhrcheninhalts, im Falle von Aktivkohle vorzugsweise durch Zentrifugieren, und bestimmt die Radioaktivität der festen oder flüssigen Phase. Im Falle von Aktivkohle als Adsorptionsmittel wird vorzugsweise die feste Phase, d.h. die Radioaktivität des freien (nichtantikörpergebundenen) jodierten Indikators gemessen.Andernfalls kann man eine Probe der überstehenden flüssigen Phase nehmen und zählen. Man erstellt eine Standardkurve, und die in der Probe vorliegende Menge Progesteron kann aus der Kurve interpoliert werden.\nDie Kreuzreaktivität verschiedener Steroide bei der erfindungsgemäßen Bestimmungsmethode ist unten angegeben.", "values": [
      {"smiles": "C[C@H](O)[C@H]1CC[C@H]2[C@@H]3CC[C@@H]4C[C@H](O)CC[C@]4(C)[C@H]3CC[C@]12C", "note": "[5ß-Pregnan-3α, 20α-diol]", "% Kreuzreaktivität": "0,7%"},
      {"smiles": "CC(=O)[C@H]1CC[C@H]2[C@@H]3CC[C@@H]4C[C@H](O)CC[C@]4(C)[C@H]3CC[C@]12C", "note": "[5ß-Pregnan-3α-01-20-on]", "% Kreuzreaktivität": "8,0%"},
      {"smiles": "CC(=O)[C@H]1CC[C@H]2[C@@H]3CC[C@H]4CC(=O)CC[C@]4(C)[C@H]3CC[C@]12C", "note": "[5α-Pregnan-3,20-dion]", "% Kreuzreaktivität": "6,0%"},
      {"smiles": "CC(=O)[C@@]1(O)CC[C@H]2[C@@H]3CCC4=CC(=O)CC[C@]4(C)[C@H]3CC[C@@]21C", "note": "[17α-Hydroxyprogesteron]", "% Kreuzreaktivität": "1,3%"},
      {"smiles": "C[C@H](O)[C@H]1CC[C@H]2[C@@H]3CCC4=CC(=O)CC[C@]4(C)[C@H]3CC[C@]12C", "note": "[20α-Hydroxyprogesteron]", "% Kreuzreaktivität": "0,25%"},
      {"smiles": "C[C@]12C[C@H](O)[C@H]3[C@@H](CCC4=CC(=O)CC[C@@]43C)[C@@H]1CC[C@@H]2C(=O)CO", "note": "[Corticosteron]", "% Kreuzreaktivität": "2,7%"},
      {"smiles": "C[C@]12CC[C@H]3[C@@H](CCC4=CC(=O)CC[C@@]43C)[C@@H]1CC[C@@H]2C(=O)CO", "note": "[Desoxycorticosteron]", "% Kreuzreaktivität": "0,01%"},
      {"smiles": "CC(=O)[C@H]1CC[C@H]2[C@@H]3CC=C4C[C@@H](O)CC[C@]4(C)[C@H]3CC[C@]12C", "note": "[Pregnenolon]", "% Kreuzreaktivität": "10,5%"},
      {"smiles": "CC(=O)[C@H]1CC[C@H]2[C@@H]3CC=C4C[C@@H](O[C@@H]5O[C@H](C(=O)O)[C@@H](O)[C@H](O)[C@H]5O)CC[C@]4(C)[C@H]3CC[C@]12C", "note": "[Pregnenolonglucuronid]", "% Kreuzreaktivität": "10,0%"},
      {"smiles": "CC(=O)[C@H]1CC[C@H]2[C@@H]3CC=C4C[C@@H](OS(=O)(=O)O)CC[C@]4(C)[C@H]3CC[C@]12C", "note": "[Pregnenolonsulfat]", "% Kreuzreaktivität": "0,4%"},
      {"smiles": "CC(=O)[C@H]1CC[C@H]2[C@@H]3CCC4=CC(=O)CC[C@]4(C)[C@H]3CC[C@]12C", "note": "[Progesteron]", "% Kreuzreaktivität": "100%"}
    ]}
  ]
}
